Square brackets hold non-standard residues; d marks the D form. Ends that are not written are not given here.
How the values were obtained:
[1] = system: SMAD transcriptional activity; assay: SMAD transcriptional activity (luciferase) with GEF-1/C constituent oligopeptides, B16 cells; type: cell-based, mouse; settings: oligopeptide 2.5 nmol with peptide transporter Wr-T, 48 hours
Method: Each GEF-1/C constituent oligopeptide (2.5 nmol) and a peptide transporter Wr-T (0.2 nmol) were mixed and then diluted to 0.1 ml with PBS, and mixed with a DNA solution for SMAD transcriptional activity testing (0.1 ml). To the respective cells (B16 cells and COLO205 cells) in a 48-well plate, which had been washed with Opti-MEM I medium, the mixture thus prepared was added in a volume of 0.2 ml per well. After 4 hours, 20% FBS/Opti-MEM I medium (0.2 ml) was added to each well. After 48 hours, the respective cells were lysed and the luciferase activity in each lysate was measured.

[2] = system: COLO205 cells; assay: growth in soft agar medium, COLO205 cells; type: cell-based, human; settings: oligopeptide introduced with Wr-T
Method: (§1) A cell culture solution (1.5 ml), in which agarose (low gelling temperature agarose) was dissolved at a concentration of 0.5% (w/v), was added to a 35 mm dish, cooled and gelled. Onto the resulting gel, a 0.33% agarose/cell culture medium containing 5.0×10^3 cells was added in a volume of 1.5 ml. After gelling, the cells were cultured in a CO2 incubator for 2 weeks. A 0.005% (w/v) aqueous solution of crystal violet (0.5 ml) was added onto the gel and incubated overnight to stain the cells. The 35 mm dish was scanned with a scanner, and colony counts were measured from the resulting image using image analysis software.
(§2) The GEF-1/C constituent oligopeptides were studied for their inhibitory effect on the growth of various tumor cells (B16 cells, HeLa cells, COLO205 cells, KATO III cells, A549 cells and PT45 cells) in soft agar medium.
(§3) In the same manner as shown in (2) above, the GEF-1/C constituent oligopeptides were introduced into various tumor cells and these cells were seeded together with a 0.33% soft agar medium.

[3] = system: B16 cells; assay: in vivo anti-tumor growth effect of oligopeptides, B16 cells in nude mice; design: species or system mouse; settings: cells incubated with oligopeptide 25 nmol and Wr-T for 2 hours, then inoculated subcutaneously into nude mice
Method: Each GEF-1/C constituent oligopeptide (25 nmol) and a peptide transporter Wr-T (2 nmol) were mixed and then diluted to 0.1 ml with PBS, to which each cell suspension prepared at 5.0×10^6 cells/ml Opti-MEM I medium was then added in a volume of 0.1 ml and mixed. This cell mixture was incubated in a CO2 incubator at 37° C. for 2 hours and then inoculated subcutaneously into nude mice. The long and short axes of tumor were measured at intervals of a week to calculate the tumor volume (=long axis×(short axis)^2×π/6). After the mice were finally euthanized with carbon dioxide gas, tumor in each mouse was photographed. Subsequently, the tumor was excised and measured for its wet weight.

[4] = system: HeLa cells; assay: growth in soft agar medium, HeLa cells; type: cell-based, human; settings: oligopeptide introduced with Wr-T
Method: as §1, §2, §3

[5] = system: B16 cells; assay: growth in soft agar medium, B16 cells; type: cell-based, mouse; settings: oligopeptide introduced with Wr-T
Method: as §1, §2, §3

[6] = system: COLO205 cells; assay: in vivo anti-tumor growth effect of r9-OP10-11 on established COLO205 tumor in nude mice; design: species or system human; settings: tumor already formed; 35 nmol in PBS around the tumor, four weekly administrations
Method: 1.0×10^6 COLO205 cells were inoculated subcutaneously into nude mice to prepare tumor of COLO205 cells. At 10 days after inoculation, a solution of r9-OP10-11 (35 nmol)/PBS was administered in a volume of 0.1 ml around the tumor whose diameter reached 5 to 6 mm (about 100 mm^3) At 7, 14 and 21 days after this administration, the same administration was repeated. The long and short axes of tumor were measured to calculate the tumor volume (=long axis×(short axis)^2×π/6). After the mice were finally euthanized with carbon dioxide gas, tumor in each mouse was photographed. Subsequently, the tumor was excised and measured for its wet weight.

[7] = system: B16 cells; assay: cell migration ability of shRNA-expressing B16 cells, Boyden chamber; type: cell-based, mouse; settings: B16 cells stably expressing the shRNA
Method: (§4) The respective shRNA expression vectors prepared in i) above were each introduced into B16 cells by gene transfer and subjected to drug selection using G418 drug (1 mg/ml). B16 cells expressing the respective shRNAs (B16/shRNA-74 cells, B16/shRNA-157 cells and B16/shRNA-207 cells) were finally obtained by cloning. These cells were confirmed for their GEF-1 expression levels by Western blotting and also examined for their ability of cell migration using a Boyden chamber.

[8] = system: GEF-1 (Hrs/Hgs); assay: GEF-1 (Hgs) expression level by Western blotting in shRNA-expressing B16 cells; type: cell-based, mouse; settings: B16 cells stably expressing the shRNA
Method: as §4

[9] = system: KOP2.16 cells; assay: tube formation inhibition test with GEF-1 siRNAs; type: cell-based, mouse; settings: siRNA 40 nmol with lipofectamine 2000; transfected KOP2.16 cells seeded on Matrigel
Method: To confirm the in vitro anti-angiogenic effect of the GEF-1-siRNAs, a tube formation inhibition test was conducted using vascular endothelial KOP2.16 cells.
Each siRNA (40 nmol) and lipofectamine 2000 (10 μl) were mixed and then diluted to 1.0 ml with Opti-MEM I medium, and added to KOP2.16 cells in a 35 mm dish, which had been washed with Opti-MEM I medium. After 4 hours, 20% FBS-containing Opti-MEM I medium (1.0 ml) was added to the dish. After 48 hours, siRNA-transfected cells were collected and counted, and then suspended in Opti-MEM I medium and seeded again on Matrigel. After 18 to 48 hours, tube formation in the cells was observed. As negative controls, PBS (“None” in FIG. 15) and Stealth RNA Negative Control Medium GC Duplex (Invitrogen) (“siRNA-MNC” in FIG. 15) were used.

[10] = system: B16 cells; assay: in vivo anti-tumor growth effect of siRNA#3, B16 tumor in nude mice; design: species or system mouse; settings: siRNA#3/atelocollagen mixture injected near the tumor, three times at intervals of a week
Method: B 16 cells were inoculated subcutaneously into nude mice. After about a week when tumor reached about 5 mm diameter (about […]), an siRNA#3/atelocollagen mixture (0.2 ml) was injected near the tumor. Subsequently, the same siRNA#3/atelocollagen mixture was further injected twice near the tumor at intervals of a week.

OP10-7: GEF-1/C constituent oligopeptide ALSALREEHR (SEQ ID NO: 60)
inhibition of SMAD transcriptional activity [1]: about 50%

OP10-10: GEF-1/C constituent oligopeptide KLEIMRQKKQ (SEQ ID NO: 63)
inhibition of growth ability in soft agar medium [2]: about 50%

OP10-11: GEF-1/C constituent oligopeptide EYLEVQRQLA (SEQ ID NO: 64)
inhibition of B16 cell tumor growth [3]: ≥ 50% | inhibition of growth ability in soft agar medium [4]: about 20% | inhibition of growth ability in soft agar medium [2]: about 50% | inhibition of SMAD transcriptional activity [1]: about 50% | inhibition of growth ability in soft agar medium [5]: about 60%

OP10-12: GEF-1/C constituent oligopeptide IQRLQEQEKE (SEQ ID NO: 65)
inhibition of SMAD transcriptional activity [1]: about 50%

r9-OP10-11: OP10-11 linked to a cell membrane permeable peptide, rrrrrrrrrGPGEYLEVQRQLA (r = D-arginine) (SEQ ID NO: 67) ([dR][dR][dR][dR][dR][dR][dR][dR][dR]GPGEYLEVQRQLA)
inhibition of growth of COLO205 cell tumor in tumor volume [6]: about 65% | inhibition of growth of COLO205 cell tumor in tumor weight [6]: about 60%

shRNA-157: shRNA against mouse GEF-1 (Hrs/Hgs) gene, Hgs157 template SEQ ID NO: 26; B16/shRNA-157 cells used as B16/shRNA cells (DNA CCGTTAATGATAAGAACCCACTTCAAGAGAGTGGGTTCTTATCATTAACTTTTTA)
inhibition of cell migration ability [7]: 95% | inhibition of Hgs expression [8]: 95%

siRNA#2: stealth RNAi against mouse Hgs; sense 5′-GGACGAUACUCGUCGACUUGUUCUU (SEQ ID NO: 32, 33) (antisense AAGAACAAGUCGACGAGUAUCGUCC; listed as RNA, chemistry not given here)
inhibitory effect on tube formation [9]: significant inhibitory effect

siRNA#3: stealth RNAi against mouse Hgs; sense 5′-UAGAAUGGACUCCCAGUCUGACUCC (SEQ ID NO: 34, 35) (antisense GGAGUCAGACUGGGAGUCCAUUCUA; listed as RNA, chemistry not given here)
tumor volume as compared to PBS or siRNA#3-scramble [10]: ≤ 50% | tumor weight as compared to PBS or siRNA#3-scramble [10]: ≤ 50% | inhibitory effect on tube formation [9]: significant inhibitory effect

Source: US20130190240A1, “TUMOR GROWTH CONTROLLING METHOD TARGETING GALACTOSYLCERAMIDE EXPRESSION FACTOR-1” (priority 2010, published 2013)
